Laboratory results as given in patent US11098083B2, “Peptide that regulates fat metabolism and method for regulating fat metabolism” (SHENZHEN INSTITUTES OF ADVANCED TECHNOLOGY, priority 2017, dated 2021).
Ends that are not written are not given here.

Assays:
[1] = test system: DIO-NAFLD mice; test: i.p. injection of ISAP1 in DIO-NAFLD mice: epididymal fat pad; assay type: in vivo, C57BL/6 mice
Description: S110: a diet-induced obesity and nonalcoholic fatty liver disease (DIO-NAFLD) mouse model by HFD feeding may be established.
Thirty specific pathogen free (SPF) level healthy 6-week-old male C57BL/6 mice may be purchased from the Experimental Animal Center of Guangdong Province. A body mass of each mouse may be 18 g to 22 g. The mice may be divided into two groups, housed in a SPF-grade animal facility of SIAT. Six mice may be fed with ND (the ND contains 5% of fat; 53% of carbohydrate; 23% of protein, having total calories of […]) for 12 weeks to be a ND control group, and may be allowed to have food and water ad lib. The other mice may be fed with HFD (the HFD may be D12451, Research Diets, Inc.) for 12 weeks, and may be allowed to have food and water ad lib. Physiological indexes of the mice may be detected. […] In the present embodiment, an average body weight of the DIO-NAFLD mice may be more than 40 g. Comparison of average body weight of the mice of the established model with that of the mice in the ND control group is shown in FIG. 1. The arrow indicates a time point at which the HFD be started.
S121: effect of i.p. injection of ISAP1 on epididymal fat pad may be studied.
When the body weight of the each mouse fed with the HFD is more than 40 g, and when the blood glucose level of the each mouse is above 10 mMol, each DIO-NAFLD mouse may be treated with i.p. injection of ISAP1 for 6 consecutive weeks. The DIO-NAFLD mice may be divided into 4 groups, 6 mice in each group. ISAP1 may be dissolved in normal saline solution containing 0.01% of BSA. A dosage of 20 pmol/g of ISAP1 may be i.p. injected into each DIO-NAFLD mouse in group #1 once a day, and a dosage of 2 pmol/g of ISAP1 may be i.p. injected into each DIO-NAFLD mouse in group #2 once a day. OCN (mouse OCN protein) may be prepared and administered similarly as the ISAP1 at a dosage of 6 pmol/g to each mouse in group #3. The mice in group #4 may be treated with normal saline only as a HFD control group. After 6 weeks, the mice may be euthanized by application of 95% CO2, and epididymal fat pads of 4 mice selected from each group and an epididymal fat pad of a mouse from the ND control group may collected and weighed. Paraffin slices of each epididymal fat pad may be prepared, and an area of the adipocytes may be observed by microscopy.
Statistical analysis may be performed to compare with the HFD control group, wherein *: P<0.05, **: P<0.01, and ***: P<0.001.

[2] = test system: HFD mice; test: gavage of peptides in HFD mice for 7 weeks: body weight; assay type: in vivo, C57BL/6 mice; conditions: gavage 2 pmol/g of body weight for 7 weeks, compared with HFD control group, FIG. 7A
Description: Six-week-old male wild-type C57BL/6 mice may be divided into 6 groups, 6 mice in each group. Group #1 may be provided with ND, and groups #2 to #6 may be provided with HFD. Group #2 may be treated as a HFD control group. Groups #3 to #6 may be experimental groups, and mice ingroups #3 to #6 may be gavaged with OCN, ISAP1, ISAP2, and ISAP3 respectively at 2 pmol/g of body weight for 7 weeks. Body weight of each mouse may be monitored and measured once a week.
Six-week-old male wild-type C57BL/6 mice may be divided into 6 groups, 6 in each group. Group #1 may be provided with ND to be a ND control group, and groups #2 to #6 may be provided with HFD. Group #2 may be treated as a HFD control group. Groups #3 to #6 may be treated as experimental groups and may be gavaged with OCN, ISAP1, ISAP2, and ISAP3 respectively at 2 pmol/g of body weight daily for 7 weeks. Body weight may be monitored and measured once a week.
Six-week-old male wild-type C57BL/6 mice may be divided into 6 groups, 6 in each group. Group #1 may be provided with ND to be a ND control group, groups #2 to #6 may be provided with HFD. Group #2 may be treated as a HFD control group. Groups #3 to #6 may be treated as experimental groups, and may be gavaged with OCN, ISAP1, ISAP2, and ISAP3 respectively at 2 pmol/g of body weight daily for 7 weeks. A body weight of each mouse may be monitored and measured once a week.

For YLGASVPSPDPLEPT [ISAP1], the “size of the epididymal fat pads” value ([1]; daily i.p. injection 6 weeks (20 or 2 pmol/g), compared with HFD control group, FIG. 2A) was “significantly reduce the size”, the “weight (average mass) of the epididymal fat pad” value ([1]; daily i.p. injection 6 weeks (20 or 2 pmol/g), compared with HFD control group, FIG. 2B) was “significantly reduce the weight” and the “sizes of adipocytes, H&E staining of epididymal fat pads” value ([1]; daily i.p. injection 6 weeks, compared with HFD control group, FIG. 2C) was “significantly reduce sizes of adipocytes”. The “average surface areas of single adipocytes calculated from H&E stained slices” value ([1]; daily i.p. injection 6 weeks, double-blind, FIG. 2D) was “significantly reduce the sizes of the adipocytes” and the body weight [2] was “significant weight loss”.
